According to patent publication US12202805B2, “Process for preparing (5S)-{[2-(4-carboxyphenyl)ethyl] |2-(2-{|3-chloro-4'-(trifluoromethyl)biphenyl-4-yl]methoxy}phenyl)ethyl]aminol-5,6,7,8-tetrahydroquinoline-2-carboxylic acid and its crystalline forms for use as pharmaceutically active compound” (Bayer Aktiengesellschaft, priority 2021, dated 2025):

Assays:
[1] = Determination of thermal stability (solid, 7 days at 90° C., HPLC); assay type: physicochemical; details: HPLC peak areas
Procedure: Determination of thermal stability of comparative example 11:
0.3 mg of the comparative example 11 were solved in 0.1 ml dimethylsulfoxide and 0.4 ml acetonitrile. Then 1.0 ml water was added. For complete dissolution the HPLC vial was shaken and sonicated. This solution was immediately analyzed by HPLC (reference at t0). 0.3 mg of the test compound was weighed into another HPLC vial. The vial was capped and stored for 7 days in a heating block at 90° C.
After this time the vial was decapped and 0.1 ml dimethylsulfoxide and 0.4 ml acetonitrile were added to the stressed compound. Then 1.0 ml water was added. For complete dissolution the HPLC vial was shaken and sonicated. The sample was analyzed by HPLC (sample after 1 week). The peak areas in percentage are used for quantification.

PAH-minipig model = PAH-minipig model on top of PAH standard-of-care; assay type: in vivo; details: inhaled; SoC e.g. bosentan, sildenafil, Ilomedin, riociguat
sGC = experiment: Efficacy under experimental conditions of oxidative stress (ODQ, L-NAME treatment); assay type: in vivo
[2] = Protein binding via Transil assay, rat plasma; assay type: in vitro ADME
Procedure: Protein Binding of Comparative Example 11 and Comparative Example 1 was Analyzed Via Transil Assay, Described Below.
The distribution of a test substance between Transil® (phosphatidylcholine lipid bilayers immobilized on silica beads) and plasma is a characteristic feature of any pharmaceutical compound and is dependent on its extent of binding to plasma proteins. By comparing the distribution between Transil® and buffer with the distribution between Transil® and plasma of any species of interest, the unbound fraction in the plasma of the respective animal species can be calculated in vitro. The respective plasma and buffer concentrations were determined via a radioactivity analysis. A detailed description of the method and its validation was published by Schuhmacher et al. (2).

## O=C(O)c1ccc(CCN(CCc2ccccc2OCc2ccc(-c3ccc(C(F)(F)F)cc3)cc2Cl)[C@H]2CCCc3nc(C(=O)O)ccc32)cc1 [comparative example 11, (5S)-5-{[2-(4-carboxyphenyl)ethyl][2-(2-{[3-chloro-4′-(trifluoromethyl)[biphenyl]-4-yl]methoxy}phenyl)ethyl]amino}-5,6,7,8-tetrahydroquinoline-2-carboxylic acid]
[1]
  thermal stability: stable
PAH-minipig model
  effect on elevated PAP on top of PAH standard-of-care: selectively decreased elevated PAP
sGC
  efficacy under oxidative stress: enhanced
[2]
  fraction unbound, times lower than comparative example 1: 1.6 times
